{"source": "patent US20160346319A1", "about": "“NO/HE GAS MIXTURE WITH BA[…]” (AIR LIQUIDE SANTE (INTERNATIONAL), priority 2014, published 2016)", "origin": "cited, not measured here", "test_system": "bacteria", "details": "high dose, certain publications", "data": [{"smiles": "[N]=O", "note": "[NO, nitric oxide]", "values": [{"measurement": "dose of NO showing an antibacterial effect", "result": "at least 150 ppm by volume"}]}]}
